{
  "source": "patent US12358915B2",
  "about": "“METTL3 inhibitory compounds” (STORM THERAPEUTICS LTD., priority 2019, dated 2025)",
  "data": [
    {"target": "T1, METTL3/14 (Homo sapiens, UniProt Q86U44)", "T1 construct": "The enzyme used was full-length his-tagged METTL3; His; made in house", "T1 sequence (Q86U44 whole entry)": "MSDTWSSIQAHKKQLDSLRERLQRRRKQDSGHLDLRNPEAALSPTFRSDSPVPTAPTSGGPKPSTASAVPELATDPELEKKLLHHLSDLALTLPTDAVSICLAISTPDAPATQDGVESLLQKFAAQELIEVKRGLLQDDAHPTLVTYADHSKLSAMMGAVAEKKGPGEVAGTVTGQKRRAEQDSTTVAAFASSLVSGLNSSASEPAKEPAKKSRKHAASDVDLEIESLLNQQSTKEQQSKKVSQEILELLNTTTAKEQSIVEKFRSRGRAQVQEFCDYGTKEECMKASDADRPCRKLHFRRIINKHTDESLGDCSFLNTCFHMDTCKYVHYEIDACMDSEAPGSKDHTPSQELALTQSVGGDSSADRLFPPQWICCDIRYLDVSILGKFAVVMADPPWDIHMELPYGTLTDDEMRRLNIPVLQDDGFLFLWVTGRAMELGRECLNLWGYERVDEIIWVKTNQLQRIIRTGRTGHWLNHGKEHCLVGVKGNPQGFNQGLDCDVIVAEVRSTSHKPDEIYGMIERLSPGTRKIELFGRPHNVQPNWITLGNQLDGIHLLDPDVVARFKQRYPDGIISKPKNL", "T1 sequence (Q9HCE5 whole entry partner)": "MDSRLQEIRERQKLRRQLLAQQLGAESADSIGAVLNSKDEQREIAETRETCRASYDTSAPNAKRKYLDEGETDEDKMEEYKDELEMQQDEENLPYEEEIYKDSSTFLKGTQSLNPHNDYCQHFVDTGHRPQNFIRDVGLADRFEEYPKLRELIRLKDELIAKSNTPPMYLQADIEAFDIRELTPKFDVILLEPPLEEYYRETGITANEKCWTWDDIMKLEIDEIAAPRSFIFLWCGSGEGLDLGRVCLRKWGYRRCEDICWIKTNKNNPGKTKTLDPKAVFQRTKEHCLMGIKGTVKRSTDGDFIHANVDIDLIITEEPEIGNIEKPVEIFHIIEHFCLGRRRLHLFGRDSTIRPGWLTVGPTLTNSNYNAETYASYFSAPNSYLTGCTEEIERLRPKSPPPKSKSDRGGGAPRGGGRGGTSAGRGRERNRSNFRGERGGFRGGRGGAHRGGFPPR", "assay": "METTL3/14 methyltransferase assay (METTL3_14 RFMS, RapidFire mass spectrometry);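 further: recombinant His-tagged METTL3 with FLAG-tagged METTL14 from baculovirus, SAH product quantified by mass spectrometry against isotope-labelled internal standards, 60 min at room temperature, scaled between no-RNA and DMSO-only wells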", "format": "biochemical", "details": "5 nM METTL3/14, 0.2 μM RNA substrate, 0.5 μM SAM; lower limit of the assay IC50=5 nM; Compounds 1-62; read-out: METTL3_14 RFMS IC50", "units": {"IC50": "nM"}, "experimental": "The enzyme used was full-length his-tagged METTL3 co-expressed with full length FLAG-tagged METTL14 in a baculovirus expression system. […] After termination, plates were sealed, centrifuged and stored at 4° C. until analysis. […] Mass Spectrometry Analysis RNA methyltransferase activity was measured label free using the RapidFireTM mass spectrometry (RF/MS) platform. Stopped and stable assay plates were analyzed on the Agilent RF300 integrated autosampler/solid-phase extraction (SPE) system coupled to an ABSciex 4000 mass spectrometer for the generation of the product S-adenosyl homocysteine (SAH) and normalized to the ratio of signal of the two internal product standards, respectively. Solvent A was water containing 0.1% (v/v) TCA. Solvent B was acetonitrile/0.1% ammonium acetate (8:2, v/v). More specifically, plates were centrifuged at 4350 rpm for 10 min, samples were aspirated under vacuum for 600 ms, then loaded onto a C18 solid-phase extraction cartridge and washed for 3 s with solvent A at a flow rate of 1.5 mL/min. Retained product and internal standards were eluted with solvent B at a flow rate of 1 mL/min for 3 s and finally the cartridge was reequilibrated with solvent A for 500 ms.", "values": [
      {"smiles": "O=C(NCc1cn2cc(CNCC(F)(F)F)ccc2n1)c1cc(=O)n2ccccc2n1", "note": "[Compound 51, 4-oxo-N-[(6-{[(2,2,2-trifluoroethyl)amino]methyl}imidazo[1,2-a]pyridin-2-yl)methyl]-4H-pyrido[1,2-a]pyrimidine-2-carboxamide]", "IC50": 1220}
    ]},
    {"target": "T1, METTL3/14", "assay": "METTL3/14 methyltransferase assay (METTL3_14 RFMS, RapidFire mass spectrometry)", "format": "biochemical", "details": "5 nM METTL3/14, 0.2 μM RNA substrate, 0.5 μM SAM; lower limit of the assay IC50=5 nM; Compounds 63-265; read-out: METTL3_14 RFMS IC50", "units": {"IC50": "nM"}, "values": [
      {"smiles": "O=C(NCc1cn2ccc(CNCC3CCCCC3)cc2n1)c1cc(=O)n2ccccc2n1", "note": "[Compound 223, N-[(7-{[(cyclohexylmethyl)amino]methyl}imidazo[1,2-a]pyridin-2-yl)methyl]-4-oxo-4H-pyrido[1,2-a]pyrimidine-2-carboxamide]", "IC50": 2170},
      {"smiles": "O=C(NCc1cn2cc(CN3CCCC(C(F)(F)F)C3)ccc2n1)c1cc(=O)n2ccccc2n1", "note": "(stereo not shown) [Compound 142, 4-oxo-N-[(6-{[3-(trifluoromethyl)piperidin-1-yl]methyl}imidazo [1,2-a]pyridin-2-yl)methyl]-4H-pyrido[1,2-a] pyrimidine-2-carboxamide]", "IC50": 48.8},
      {"smiles": "O=C(NCc1cn2cc(CNCC3(F)CCCCC3)ccc2n1)c1cc(=O)n2ccccc2n1", "note": "[Compound 91, N-{[6-({[(1-fluorocyclohexyl)methyl]amino}methyl)imidazo [1,2-a]pyridin-2-yl]methyl}-4-oxo-4H-pyrido[1,2-a]pyrimidine-2-carboxamide]", "IC50": 57.6},
      {"smiles": "CC(C)(C)[C@@H]1COC[C@H](c2ccc3nc(CNC(=O)c4cc(=O)n5ccccc5n4)cn3c2)N1", "note": "[Example 229, N-({6-[(3S,5R)-5-tert-butylmorpholin-3-yl]imidazo[1,2-a]pyridin-2-yl}methyl)-4-oxo-4H-pyrido[1,2-a]pyrimidine-2-carboxamide]", "IC50": 100},
      {"smiles": "O=C(NCc1cn2cc(CNC3CNC3)ccc2n1)c1cc(=O)n2ccccc2n1", "note": "[Compound 241, N-[(6-{[(azetidin-3-yl)amino]methyl}imidazo[1,2-a]pyridin-2-yl)methyl]-4-oxo-4H-pyrido[1,2-a]pyrimidine-2-carboxamide]", "IC50": 2110},
      {"smiles": "O=C(NCc1cn2cc(CNc3ccc(Cl)cc3)ccc2n1)c1cc(=O)n2ccccc2n1", "note": "[Compound 153, N-[(6-{[(4-chlorophenyl)amino]methyl}imidazo[1,2-a]pyridin-2-yl)methyl]-4-oxo-4H-pyrido[1,2-a] pyrimidine-2-carboxamide]", "IC50": 1580},
      {"smiles": "O=C(NCc1cn2cc(CNCc3ccc(F)cc3)ccc2n1)c1cc(=O)n2ccccc2n1", "note": "[Compound 80, N-{[6-({[(4-fluorophenyl)methyl]amino}methyl)imidazo [1,2-a]pyridin-2-yl]methyl}-4-oxo-4H-pyrido[1,2-a]pyrimidine-2-carboxamide]", "IC50": 16.5},
      {"smiles": "CC(C)(C)CNCc1ccc2nc(CNC(=O)c3cc(=O)c4ccccc4o3)cn2c1", "note": "[Compound 265, N-[(6-{[(2,2-dimethylpropyl)amino]methyl}imidazo[1,2-a]pyridin-2-yl)methyl]-4-oxo-4H-chromene-2-carboxamide]", "IC50": 50.6},
      {"smiles": "O=C(NCc1cn2cc(CNCC3CCCCC3)ccc2n1)c1cc(=O)c2ccc(Cl)cc2o1", "note": "[Compound 171, 7-chloro-N-[(6-{[(cyclohexylmethyl)amino]methyl}imidazo[1,2-a]pyridin-2-yl)methyl]-4-oxo-4H-chromene-2-carboxamide]", "IC50": 293},
      {"smiles": "CC(C)(C)C1CCC(NCc2ccc3nc(CNC(=O)c4cc(=O)n5ccccc5n4)cn3c2)CC1", "note": "(stereo not shown) [Compound 162, N-[(6-{[(4-tert-butylcyclohexyl)amino]methyl}imidazo[1,2-a]pyridin-2-yl)methyl]-4-oxo-4H-pyrido[1,2-a] pyrimidine-2-carboxamide]", "IC50": 225},
      {"smiles": "O=C(NCc1cn2cc(CNC(C3CC3)C3CC3)ccc2n1)c1cc(=O)n2ccccc2n1", "note": "[Compound 135, N-[(6-{[(dicyclopropyl-methyl)amino]methyl}imidazo [1,2-a]pyridin-2-yl)methyl]-4-oxo-4H-pyrido [1,2-a]pyrimidine-2-carboxamide]", "IC50": 18.3}
    ]},
    {"target": "T1, METTL3/14", "assay": "METTL3/14 methyltransferase assay (METTL3_14 RFMS, RapidFire mass spectrometry)", "format": "biochemical", "details": "5 nM METTL3/14, 0.2 μM RNA substrate, 0.5 μM SAM; lower limit of the assay IC50=5 nM; Compounds 266-351; read-out: METTL3_14 RFMS IC50", "units": {"IC50": "nM"}, "values": [
      {"smiles": "CC(=O)N(Cc1ccc2nc(CNC(=O)c3cc(=O)n4ccccc4n3)cn2c1)CC1CCC1", "note": "[Example 340, N-[(6-{[N-(cyclobutylmethyl)acetamido]methyl}imidazo[1,2-a]pyridin-2-yl)methyl]-4-oxo-4H-pyrido[1,2-a]pyrimidine-2-carboxamide]", "IC50": 6810}
    ]}
  ]
}
